# Data taken from patent publication US6767890B1, “Peptides having anti-cancer and anti-inflammatory activity” (priority 1998, dated 2004).
# “And” between values parts separate entries of the source, which are not always exact repeats. Equal entries are not always repeated.
# Assays:
# galanin receptor = assay: Galanin Agonism/Antagonism, rat ileum; assay type: cell-based; conditions: Peptide 30 μM
# Experimental: (§1) For in vivo assay, distilled water and saline was used as vehicle in oral and intraperitoneal administration, respectively. Dosing volume was 20 ml/kg for mice or 10 ml/kg for rats.
# A segment of ileum obtained from Wistar derived male or female rats weighing 275±25 gms and sacrificed by CO2 overexposure was used. The tissue was placed under 1 g tension in a 10 ml bath containing Kreb's solution pH 7.4 at 32° C. Test substance (30 μM)-induced contraction 50 percent or more (≧50%) within 5 minutes, relative to control 0.1 μM galanin response, indicated possible galanin receptor agonist activity. Atha test substance concentration where no significant agonist activity was seen, ability to reduce the galanin-induced contractile response […] or more (≧50%) indicated galanin receptor antagonist activity. Each concentration was tested on two separate preparations.
# [1] = test system: oxazolone-induced ear swelling; assay: Immune Suppression, Cellular (oxazolone ear thickness); assay type: in vivo, mouse; conditions: IP, Peptide 100 mg/kg × 5, Cyclophosphamide 30 mg/kg × 5
# Experimental: as §1
# Groups of 5 ICR derived male mice weighing 22±1 gms were used. The preshaved abdominal surface was sensitized by application of oxazolone 0.1 ml of 5% solution. […] After additional four days, the animals were challenged by secondary application of oxazolone (0.025 ml of 5% solution) to the right ear. After a further 24 hours, each mouse was sacrificed and ear thickness measured with a Dyer Model micrometer gauge. A 30 percent or more (≧30%) decrease relative to the vehicle control group was considered significant and indicated possible immunosuppressant activity.
# [2] = test system: ovalbumin-induced bronchoconstriction; assay: Pulmonary, Histamine H3 (ovalbumin-induced bronchoconstriction); assay type: in vivo, guinea pig; conditions: Peptide PO 10 mg/kg, R-α-methylhistamine IV 30 mg/kg
# Experimental: as §1
# A group of Duncan Hartley derived male or female guinea pigs weighing 250±50 gms were anesthetized with pentobarbital sodium (50 mg/kg IP plus an additional 15 mg/kg IP if required) and succinylcholine chloride (2 mg/animal IP) was subsequently administered to prevent spontaneous respiration. Body temperature was maintained at 37° to 38° C. The trachea was cannulated and the guinea pig ventilated with a Harvard rodent respirator in a closed system. Tracheal pressure (TP) was recorded through a side-arm of the cannula connected to a P23ID Statham transducer. Respiratory rate set at 50 strokes/minute with a stroke volume (approximately 1 ml/100 g) sufficient to produce a baseline tracheal pressure of 6 cm H2O. Mean arterial pressure was monitored from a cannulated carotid artery, and heart rate was obtained from chest electrodes arranged for lead II. The jugular vein was cannulated for IV vehicle or drug administration in a volume of 1 ml/kg. Guinea pigs were sensitized with IP injections of ovalbumin 0.5 μg+Al(OH)3 1 mg (0.5 ml/animal) on days 1, and boosted with same dosage of ovalbumin and Al(OH)3 vaccine on day 8; and the animals were ready to be challenged between days 19 and 23 to get a submaximal ovalbumin (50 μg/kg IV)-induced bronchoconstriction, reflected as an increase in tracheal pressure (cm H2O). […]. Test substances were administered PO (10 mg/kg) at 60 minutes before ovalbumin (50 μg/kg IV) challenge in 3 guinea pigs. Tracheal pressure, blood pressure and heart rate were measured immediately before and after ovalbumin challenge.
# [3] = target: Ca++ Ch.-L, Benzothiazepine (Rattus norvegicus, UniProt P22002); assay: Ca++ Ch.-L, Benzothiazepine radioligand binding; conditions: 10.0 μM; specific binding of [3H]Diltiazem; negative = stimulation
# Ca++ Ch.-L, Benzothiazepine, sequence (P22002 whole entry): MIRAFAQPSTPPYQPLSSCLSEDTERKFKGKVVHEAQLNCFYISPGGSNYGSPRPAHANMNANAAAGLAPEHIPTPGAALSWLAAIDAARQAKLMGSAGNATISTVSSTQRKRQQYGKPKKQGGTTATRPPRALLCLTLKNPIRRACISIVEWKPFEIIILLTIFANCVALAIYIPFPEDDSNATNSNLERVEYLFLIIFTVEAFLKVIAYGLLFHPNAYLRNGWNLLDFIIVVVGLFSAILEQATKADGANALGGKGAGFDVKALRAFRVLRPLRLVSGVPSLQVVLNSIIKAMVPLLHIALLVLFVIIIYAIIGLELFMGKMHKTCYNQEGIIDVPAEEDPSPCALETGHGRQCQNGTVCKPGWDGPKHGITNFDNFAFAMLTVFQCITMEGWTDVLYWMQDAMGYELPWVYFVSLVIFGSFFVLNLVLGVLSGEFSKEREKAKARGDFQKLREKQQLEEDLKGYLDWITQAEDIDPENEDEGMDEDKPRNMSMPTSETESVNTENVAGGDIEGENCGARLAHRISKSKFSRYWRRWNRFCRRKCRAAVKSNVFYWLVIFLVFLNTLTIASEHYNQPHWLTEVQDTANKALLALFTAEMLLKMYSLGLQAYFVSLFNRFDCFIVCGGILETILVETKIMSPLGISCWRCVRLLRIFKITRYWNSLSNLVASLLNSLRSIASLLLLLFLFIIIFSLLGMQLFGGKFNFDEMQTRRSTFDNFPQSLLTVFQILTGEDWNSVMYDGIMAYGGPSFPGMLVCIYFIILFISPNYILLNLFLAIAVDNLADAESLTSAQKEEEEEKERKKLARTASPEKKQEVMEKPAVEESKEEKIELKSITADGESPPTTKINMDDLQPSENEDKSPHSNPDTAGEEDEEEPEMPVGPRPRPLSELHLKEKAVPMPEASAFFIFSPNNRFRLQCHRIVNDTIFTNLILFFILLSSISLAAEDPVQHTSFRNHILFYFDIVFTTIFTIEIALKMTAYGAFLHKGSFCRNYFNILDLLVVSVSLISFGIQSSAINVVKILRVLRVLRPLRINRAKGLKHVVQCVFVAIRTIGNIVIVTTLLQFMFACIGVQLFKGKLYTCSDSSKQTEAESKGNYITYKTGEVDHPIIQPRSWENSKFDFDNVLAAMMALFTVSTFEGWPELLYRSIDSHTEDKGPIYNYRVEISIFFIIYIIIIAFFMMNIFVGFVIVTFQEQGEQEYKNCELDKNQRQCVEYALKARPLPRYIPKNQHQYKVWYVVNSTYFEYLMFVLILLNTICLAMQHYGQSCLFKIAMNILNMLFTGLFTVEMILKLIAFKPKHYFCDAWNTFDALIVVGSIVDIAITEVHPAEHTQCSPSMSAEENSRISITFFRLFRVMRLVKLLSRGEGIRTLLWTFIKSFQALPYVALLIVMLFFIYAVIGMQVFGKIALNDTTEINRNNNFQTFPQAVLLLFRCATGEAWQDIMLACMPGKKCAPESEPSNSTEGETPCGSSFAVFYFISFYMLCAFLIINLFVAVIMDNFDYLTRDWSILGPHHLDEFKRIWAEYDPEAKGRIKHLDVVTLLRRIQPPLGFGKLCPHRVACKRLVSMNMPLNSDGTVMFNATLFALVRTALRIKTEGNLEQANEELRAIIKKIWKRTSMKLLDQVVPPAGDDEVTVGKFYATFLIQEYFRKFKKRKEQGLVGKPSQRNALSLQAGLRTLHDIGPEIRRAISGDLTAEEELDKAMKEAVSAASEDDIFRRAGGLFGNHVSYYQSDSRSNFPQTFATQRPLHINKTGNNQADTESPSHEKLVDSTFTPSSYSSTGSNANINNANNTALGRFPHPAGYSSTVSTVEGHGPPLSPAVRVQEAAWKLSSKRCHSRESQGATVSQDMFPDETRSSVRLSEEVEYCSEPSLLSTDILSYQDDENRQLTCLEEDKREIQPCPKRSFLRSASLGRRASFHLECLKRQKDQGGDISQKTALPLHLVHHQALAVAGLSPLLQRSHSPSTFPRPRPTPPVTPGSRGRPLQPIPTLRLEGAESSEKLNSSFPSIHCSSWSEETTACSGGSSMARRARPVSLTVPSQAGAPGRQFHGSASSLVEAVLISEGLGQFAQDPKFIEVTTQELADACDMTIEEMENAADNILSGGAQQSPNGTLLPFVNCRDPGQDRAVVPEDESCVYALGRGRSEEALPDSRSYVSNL
# Experimental: (§2) The peptide was further screened in vitro in a variety of enzyme and biochemical assays. Methods employed were adapted from the scientific literature to maximize reliability and reproducibility.
# (§3) Results presented in Table 10, “Results,” are the average of duplicate determinations, unless otherwise noted.
# (§4) Radioligand binding assays were performed under conditions described in Table 8, “Experimental Conditions.” Radioligands employed in this study are given in Table 8, and commercial sources and catalog numbers of the radioligands are provided in Table 7, “Material Sources.” Unlabeled, blocking ligands employed this study are listed in Table 8, “Experimenal Conditions,” along with the commercial sources and catalog number of the unlabeled ligand. The concurrent reference compound (control) employed in each assay is listed in Table 9, “Reference Compound Data,” along with the commercial supplier and catalog number of the compound. Where receptors have been obtained through recombinant expression techniques, the species from which the cDNA was obtained, and the type of expression system employed (mammalian, insect, bacterial) is also given Table 7.
# (§5) Maximum total binding and nonspecific binding were determined each time each assay was run. Nonspecific binding was defined as the proportion of total binding not displaced by unlabeled ligand specific for the receptor. […]
# Interleukin-6 = target: T1, Interleukin-6 (Homo sapiens, UniProt P08887); assay: Interleukin-6 radioligand binding; conditions: 10.0 μM; specific binding of [125I]Interleukin-6; negative = stimulation
# T1 construct: human U266; endogenous in cells; host or cells: U266 cells
# T1 sequence (P08887 20-468): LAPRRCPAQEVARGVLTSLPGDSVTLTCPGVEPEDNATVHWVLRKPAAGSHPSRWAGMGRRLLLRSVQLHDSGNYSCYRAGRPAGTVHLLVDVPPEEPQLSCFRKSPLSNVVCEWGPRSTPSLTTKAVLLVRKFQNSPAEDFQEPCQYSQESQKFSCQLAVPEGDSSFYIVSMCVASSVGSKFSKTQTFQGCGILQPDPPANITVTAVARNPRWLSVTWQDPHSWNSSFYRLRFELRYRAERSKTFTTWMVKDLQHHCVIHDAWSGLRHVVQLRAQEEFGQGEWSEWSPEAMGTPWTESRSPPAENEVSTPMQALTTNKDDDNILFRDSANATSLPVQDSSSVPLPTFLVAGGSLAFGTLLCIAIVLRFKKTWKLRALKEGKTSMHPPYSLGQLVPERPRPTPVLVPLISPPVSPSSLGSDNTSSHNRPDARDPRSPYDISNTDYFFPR
# Experimental: as §2, with “reproducibility. The primary literature reference for each assay is listed in Table 11 opposite the results for each assay.” for “reproducibility.”
# as §3
# Reference compounds were tested concurrently at 5 concentrations as an integral part of each assay to ensure the validity of the results obtained. […]
# Maximum total binding and nonspecific binding were determined each time each assay was run. […]
# Where inhibition constants (Ki) are presented, the Ki values were calculated using the equation of Cheng and Prusoff (Cheng, Y., Prusoff, W. H., Biochem. Pharmacol. […], 1973) using the observed IC50 of the tested compound, the concentration of radioligand employed in the assay, and the historical values for the Kd of the ligand (obtained experimentally). Where presented, the Hill Coefficient (nH), defining the scope of the competitive binding curve, was calculated using GraphPad Prism. […] Where IC50, Ki, and/or Hill Slope data is presented without Standard Error of the Mean (SEM), data are insufficient to be quantitative, and the values presented (Ki, IC50, nH) should be interpreted with caution. […]
# TNF-α = TNF-α radioligand binding; design: species or system human; conditions: 10.0 μM; specific binding of [125I]TNF-alpha; negative = stimulation
# Experimental: as §2, §3, §4, §5
substance,measurement,setting,value
LEU-PRO-PRO-SER-ARG [Peptide],"Antagonism, Ave.",galanin receptor; average of two preparations,12%
same,"Agonism, Ave.","galanin receptor; average of two preparations, Galanin 0.1 μM",0%
same,Agonism,"galanin receptor; individual preparation, contraction within 5 minutes relative to 0.1 μM galanin response, Galanin 0.1 μM",0%
same,Antagonism,"galanin receptor; individual preparation, reduction of 0.1 μM galanin-induced contractile response",24% and 0%
same,% INH.,[1]; decrease of net ear thickness relative to vehicle control,17%
same,"Thickness Net, X (group mean)",[1]; group mean,23.0 × 0.1 mm
same,Thickness Net,"[1]; individual mouse, R. Ear minus L. Ear",20 × 0.1 mm and 21 × 0.1 mm and 24 × 0.1 mm and 27 × 0.1 mm
same,Thickness R. Ear,"[1]; individual mouse, challenged right ear, 24 hours after oxazolone challenge",43 × 0.1 mm (2×) and 44 × 0.1 mm and 50 × 0.1 mm
same,Thickness L. Ear,"[1]; individual mouse, left ear",23 × 0.1 mm (2×) and 22 × 0.1 mm and 20 × 0.1 mm
same,Inc. of TP X ± SEM,"[2]; group mean, N=3",31.5 ± 2.3 cm H2O
same,Inc. of TP Ind.,"[2]; individual guinea pig, tracheal pressure after ovalbumin 50 μg/kg IV",27.5 cm H2O and 35.5 cm H2O and 31.5 cm H2O
same,% INH.,[2]; inhibition of induced bronchoconstriction relative to vehicle,−6.8%
same,% Inhibition,[3],18%
same,% Inhibition,Interleukin-6,13%
same,% Inhibition,TNF-α,−11%
